Data on 23 compounds can be found in ChEMBL document CHEMBL1201862, “PubChem BioAssay data set” (2004).

The source made the active and inactive calls.

The target of one data set is Cytochrome P450 2C9 (Homo sapiens, UniProt P11712).
The next data set concerns the target Cytochrome P450 2C19 (Homo sapiens, UniProt P33261). As to the kind of experiment: Cytochrome panel assay with activity outcomes. Panel member name: p450-cyp2c19 Compounds with AC50 equal or less than 10 uM are considered active. It counts as functional.
The target of data set [1] is T1, Heat shock factor protein 1 (Mus musculus, UniProt P38532).
T1 sequence (P38532 whole entry): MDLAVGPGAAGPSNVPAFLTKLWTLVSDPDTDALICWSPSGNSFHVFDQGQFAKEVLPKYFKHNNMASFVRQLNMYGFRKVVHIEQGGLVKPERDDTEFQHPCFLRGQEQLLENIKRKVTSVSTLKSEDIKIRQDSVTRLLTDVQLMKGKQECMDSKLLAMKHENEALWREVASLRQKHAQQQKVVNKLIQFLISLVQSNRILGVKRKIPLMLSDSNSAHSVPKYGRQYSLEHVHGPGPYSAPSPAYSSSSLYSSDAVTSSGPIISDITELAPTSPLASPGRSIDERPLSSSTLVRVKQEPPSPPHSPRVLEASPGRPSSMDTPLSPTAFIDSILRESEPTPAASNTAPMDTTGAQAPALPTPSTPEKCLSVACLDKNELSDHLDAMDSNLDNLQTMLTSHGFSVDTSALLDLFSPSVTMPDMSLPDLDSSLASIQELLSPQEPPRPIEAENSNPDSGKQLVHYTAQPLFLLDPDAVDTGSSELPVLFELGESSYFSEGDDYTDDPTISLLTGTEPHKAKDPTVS
As to the kind of experiment: decrease of HSF1-responsive luciferase luminescence – cell-based, NIH3T3, dose retest, confirmation (AID 2382).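 Note: NIH3T3 fibroblasts with HSF1-driven luciferase reporter stressed by proteasome inhibitor MG132; luminescence from HSF1-driven luciferase expression after 8 hours of MG132 stress.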 The data set is classed as functional.

The next data set addresses Cytochrome P450 2D6 (Homo sapiens, UniProt P10635).
For another data set, the target named is T2, Streptokinase A (Streptococcus pyogenes serotype M1, UniProt P10520).
T2 sequence (P10520 whole entry): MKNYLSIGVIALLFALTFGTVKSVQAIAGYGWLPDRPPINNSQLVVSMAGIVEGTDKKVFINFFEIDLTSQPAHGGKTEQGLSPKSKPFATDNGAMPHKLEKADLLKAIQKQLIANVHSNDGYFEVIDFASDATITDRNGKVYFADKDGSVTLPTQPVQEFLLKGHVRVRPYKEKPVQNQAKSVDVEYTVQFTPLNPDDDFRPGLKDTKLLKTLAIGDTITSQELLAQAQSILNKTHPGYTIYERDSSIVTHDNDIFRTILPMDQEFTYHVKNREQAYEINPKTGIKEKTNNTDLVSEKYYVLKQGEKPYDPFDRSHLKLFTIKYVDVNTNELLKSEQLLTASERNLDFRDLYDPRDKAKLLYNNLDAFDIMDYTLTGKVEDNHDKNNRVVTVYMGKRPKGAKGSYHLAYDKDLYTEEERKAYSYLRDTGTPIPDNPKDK
As to the kind of experiment: viability-normalized secreted streptokinase activity reduction – plasminogen activation absorbance, OD405, dose response (AID 1914).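 Note: secreted streptokinase activity via plasminogen activation per viability signal from cell pellet.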 The data set is classed as functional, Streptococcus pyogenes M1 GAS.

Another data set has as its system Streptococcus. As to the kind of experiment: GAS UMAA2166 growth inhibition – luminescence, BacTiterGlo, counter-screen for streptokinase expression inhibitor project, dose response (AID 1915).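 Note: potency for reduction of bacterial viability or growth.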 It counts as functional, organism-based.
For data set [2], the system named is Streptococcus sp. 'group A'. As to the kind of experiment: Streptococcus pyogenes SK(-)GAS viability under kanamycin – luminescence, BacTiterGlo, confirmation, counter-screen for streptokinase expression inhibitor project, dose response (AID 1900). The data set is classed as functional, organism-based.

Sequence of Cytochrome P450 2C9 (P11712 whole entry): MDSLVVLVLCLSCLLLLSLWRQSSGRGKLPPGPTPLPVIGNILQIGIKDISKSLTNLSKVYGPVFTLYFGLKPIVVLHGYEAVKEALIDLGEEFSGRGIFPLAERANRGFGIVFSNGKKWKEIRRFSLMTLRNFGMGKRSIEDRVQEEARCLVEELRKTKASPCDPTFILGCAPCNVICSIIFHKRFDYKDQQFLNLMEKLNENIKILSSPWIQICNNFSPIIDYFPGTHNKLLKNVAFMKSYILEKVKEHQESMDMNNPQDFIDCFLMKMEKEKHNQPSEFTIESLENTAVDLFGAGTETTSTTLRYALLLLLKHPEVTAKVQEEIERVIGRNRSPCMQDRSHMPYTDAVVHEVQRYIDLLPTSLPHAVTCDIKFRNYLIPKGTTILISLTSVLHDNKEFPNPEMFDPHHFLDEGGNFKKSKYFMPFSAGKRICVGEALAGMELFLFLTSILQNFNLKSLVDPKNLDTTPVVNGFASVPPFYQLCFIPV
Sequence of Cytochrome P450 2C19 (P33261 whole entry): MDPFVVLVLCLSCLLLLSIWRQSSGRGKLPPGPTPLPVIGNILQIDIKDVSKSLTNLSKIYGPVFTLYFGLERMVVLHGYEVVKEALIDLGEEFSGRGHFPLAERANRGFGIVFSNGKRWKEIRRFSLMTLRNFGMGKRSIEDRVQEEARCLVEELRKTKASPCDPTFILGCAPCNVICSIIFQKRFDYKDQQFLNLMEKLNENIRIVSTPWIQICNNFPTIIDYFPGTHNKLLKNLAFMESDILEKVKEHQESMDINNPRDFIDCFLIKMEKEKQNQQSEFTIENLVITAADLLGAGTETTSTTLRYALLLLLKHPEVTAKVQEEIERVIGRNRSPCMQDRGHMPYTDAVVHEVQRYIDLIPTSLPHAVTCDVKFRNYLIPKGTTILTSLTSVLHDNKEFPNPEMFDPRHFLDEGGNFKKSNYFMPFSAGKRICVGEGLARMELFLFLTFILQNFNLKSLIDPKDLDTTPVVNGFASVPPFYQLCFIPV
Sequence of Cytochrome P450 2D6 (P10635 whole entry): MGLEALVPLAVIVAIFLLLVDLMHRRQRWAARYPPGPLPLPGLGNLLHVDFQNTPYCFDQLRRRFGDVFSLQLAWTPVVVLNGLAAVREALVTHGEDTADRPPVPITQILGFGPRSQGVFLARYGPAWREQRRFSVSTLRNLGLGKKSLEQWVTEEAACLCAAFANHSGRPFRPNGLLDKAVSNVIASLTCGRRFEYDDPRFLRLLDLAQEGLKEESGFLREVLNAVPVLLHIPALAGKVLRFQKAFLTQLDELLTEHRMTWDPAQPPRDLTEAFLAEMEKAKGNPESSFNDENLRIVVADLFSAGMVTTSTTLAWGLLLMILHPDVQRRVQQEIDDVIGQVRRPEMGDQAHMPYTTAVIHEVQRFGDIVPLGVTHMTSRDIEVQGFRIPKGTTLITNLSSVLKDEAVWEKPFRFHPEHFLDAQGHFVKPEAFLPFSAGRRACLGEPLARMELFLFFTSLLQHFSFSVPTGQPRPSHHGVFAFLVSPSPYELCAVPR

Turning to `CC(C)C(NS(=O)(=O)c1cccc2nsnc12)C(=O)N1CCc2ccccc2C1` (configuration not stated), the concentration at half-maximal activity (AC50) is 3.55 µM (inconclusive) on Cytochrome P450 2C9 and 6.31 µM (inconclusive) on Cytochrome P450 2C19 (read-out: AC50).

With `O=c1c(-c2cc(F)cc(F)c2)nc2cnc(N3CCNCC3)nc2n1Cc1ccc(F)cc1`, the AC50 on Cytochrome P450 2C9 was 12.6 µM (inconclusive).

On to `CSc1ccc(CNc2ccc(C)c(C)c2)cc1`, for which the AC50 on Cytochrome P450 2C9 was 14.1 µM (inconclusive).

For `Oc1ccccc1-c1nnc(-c2ccc(C(F)(F)F)cc2)o1`, in data set [1], the EC50 is on record as > 195 µM (not active). Moreover, the AC50 on Cytochrome P450 2C19 (read-out: AC50) is 39.8 µM (inconclusive).

`O=C(CP(=O)(c1ccccc1)c1ccccc1)Nn1cnnc1`: the AC50 entry at Cytochrome P450 2C19 is recorded as “inconclusive”.

For `CCCCCn1c(=O)c(C(=O)c2ccccc2)nc2ccccc21`, at Cytochrome P450 2D6, the AC50 is 28.2 µM (inconclusive).

Regarding `C[C@H](CO)NC(=O)[C@H](C)[C@@H]1C[C@@]1(C)[C@@H](NC(=O)OCc1ccccc1)c1ccccc1`, the AC50 on Cytochrome P450 2C9 was 39.8 µM (inconclusive).

Regarding `CN1CCN(c2ncnc3ccc(-c4ccccc4Cl)cc23)CC1`, the AC50 at Cytochrome P450 2D6 is 25.1 µM (inconclusive).

Consider `COCCn1c(=O)c(-c2cccs2)nc2cnc(N3CCNCC3)nc21`, for which the AC50 on Cytochrome P450 2C19 (read-out: AC50) was 25.1 µM (inconclusive).

With `COc1cccc(Cn2c(=O)c(-c3cc(F)cc(F)c3)nc3cnc(N4CCNCC4)nc32)c1`, the AC50 at Cytochrome P450 2D6 and on Cytochrome P450 2C19 (read-out: AC50) was 39.8 µM (inconclusive) each time.

Regarding `CCn1c(C)[n+](CCCS(=O)(=O)[O-])c2cc(Cl)c(Cl)cc21`, the AC50 entry on Cytochrome P450 2C19 is listed as “inconclusive”.

Take `Cc1ccc(/C=N/n2c(S)nnc2-c2cccs2)cc1`: the AC50 on Cytochrome P450 2D6 was 5.01 µM (inconclusive); on Cytochrome P450 2C19 (read-out: AC50) it was 3.55 µM (inconclusive).

As for `Nc1ccc(-c2ccc(Nc3cc(S(=O)(=O)O)c(N)c4c3C(=O)c3ccccc3C4=O)cc2)c(S(=O)(=O)O)c1`, the concentration at half-maximal activity (AC50) on Cytochrome P450 2C9 is 6.31 µM (inconclusive).

Consider `O=C(c1ccc(N2CCCCC2)c([N+](=O)[O-])c1)N(Cc1ccccc1)c1ccccn1`, for which the AC50 at Cytochrome P450 2C9 was 7.94 µM (inconclusive).

Turning to `COc1ccc(C2Nc3ccccc3C(=O)N2Cc2ccco2)cc1COc1ccc([N+](=O)[O-])cc1` (configuration not stated), the AC50 at Cytochrome P450 2D6 was 3.98 µM (inconclusive).

Consider `CCc1nc(N[C@H](C(=O)O)C(C)CC)c2oc3ccccc3c2n1` (some centres not stated), for which the AC50 was 0.00891 µM (inconclusive) on Cytochrome P450 2C9 and “inconclusive” at Cytochrome P450 2C19.

In the case of `NC(=O)CSc1nc2sc(-c3ccccc3)cc2c(=O)n1N`, the AC50 on Cytochrome P450 2C9 was 3.55 µM (inconclusive).

On to `N=C(N)c1ccc(/N=N\c2c(O)ccc3c2[nH]c2ccccc23)cc1`, for which, on Cytochrome P450 2D6, the AC50 is 5.01 µM (inconclusive).

For `CCCNC(=O)N1N=C(c2ccc(N)cc2)c2cc3c(cc2[C@H]1C)OCO3`, the AC50 on Cytochrome P450 2D6 is 25.1 µM (inconclusive).

For `CC(C)(C)c1ccc(CN(Cc2ccco2)Cc2nnnn2C2CCCC2)cc1`, the AC50 on Cytochrome P450 2D6 was 22.4 µM (inconclusive). In addition, the EC50 is 12.7 µM (active) on Streptokinase A, > 150 µM (not active) in the data set on Streptococcus and 5.71 µM (active) in data set [2].

As for `CN(C)CC/C=C1\c2ccccc2CSc2ccccc21` [DOTHIEPIN], the AC50 at Cytochrome P450 2D6 is 7.94 µM (inconclusive).

For the compound `COCCCN1C(=O)C(O)=C(C(=O)c2ccc(OC(C)C)c(C)c2)C1c1ccncc1` (configuration not stated), the values for the half-maximal activity concentration (AC50) at Cytochrome P450 2C9 and on Cytochrome P450 2C19 (read-out: AC50) were 35.5 µM (inconclusive) and 11.2 µM (inconclusive), respectively.

For `Cc1cc(-c2ccc(Cl)cc2)oc(=O)c1NC(=O)c1ccccc1`, the AC50 on Cytochrome P450 2C19 (read-out: AC50) was 3.55 µM (inconclusive).
